This is an account of results in US20240391948A1, “NOVEL COMPOUND THAT INHIBITS TNF-ALPHA GENERATION AND INFLAMMASOME ACTIVITY AND PREPARATION METHOD THEREFOR” (SHAPERON INC., priority 2021, published 2024).

pIC50: −log10 of the molar value.

What all share (assay type): cell-based
Experiment [1] relates to J774A.1 (Mouse BALB/c monocyte macrophage cell line) cells. Description: LPS-induced TNF-α secretion inhibition in J774A.1 cells. As to conditions: J774.A1, 1 μM compound, graded compared to taurodeoxycholic acid (positive control), read-out: TNF-α production inhibition grade. In outline:
(§1)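 Mouse J774A.1 macrophages treated with 1 μM compound; TNF-α secretion measured after LPS stimulation and IL-1β secretion after LPS+ATP stimulation. Suppression graded against taurodeoxycholic acid: A over 100%, B 50–100%, C 20–50%, D under 20%.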

The test system is the same in experiment [2]. Nature of the experiment: LPS+ATP-induced IL-1β secretion inhibition in J774A.1 cells. As to conditions: J774.A1, 1 μM compound, graded compared to taurodeoxycholic acid (positive control), read-out: IL-1β production inhibition grade. In outline:
as §1

The test system of experiment [3] is U937 cells (human monocytic cell line). Nature of the experiment: Pam2CSK4-induced TNF-α secretion inhibition in PMA-differentiated U937 cells. As to conditions: U-937, U937 cells differentiated with PMA, read-out: TNF-α production inhibition grade (IC50). In outline: (§2)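 U937 cells were PMA-differentiated into macrophages and treated with compound before inflammatory stimulus. TNF-α secretion was induced with Pam2CSK4 and IL-1β secretion with BzATP. IC50 (μM) values are graded A-D, with separate cut-offs per cytokine.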

Experiment [4] shares this test system. Description: BzATP-induced IL-1β secretion inhibition in PMA-differentiated U937 cells. As to conditions: U-937, U937 cells differentiated with PMA, read-out: IL-1β production inhibition grade (IC50). The gist of the method:
as §2

Broadly, the inhibition is the share of the control response that was lost under treatment. As a reminder, the pIC50 is the IC50 on a negative log10 scale, so that one unit is a factor of ten. `C[C@H](CCC(=O)N[C@@H](C)CS(=O)(=O)O)[C@H]1CC[C@H]2[C@@H]3CC[C@@H]4C[C@H](O)CC[C@]4(C)[C@H]3CC[C@]12C` [NC10084]: the inhibition at 1 µM in experiment [1] and in experiment [2] was under 20% each time. Moreover, the pIC50 was over 6.30 in experiment [3] and at most 6.70 in experiment [4].

Turning to `C[C@H](CS(=O)(=O)O)NC(=O)CC[C@@H](C)[C@H]1CC[C@H]2[C@@H]3CC[C@@H]4C[C@H](O)CC[C@]4(C)[C@H]3CC[C@]12C` [NC10085], the inhibition at 1 µM in experiment [1] and in experiment [2] was under 20% each time. The figures for the pIC50 in experiment [3] and in experiment [4] were at most 5.70 and at most 6.70, respectively.

In the case of `CC(C)C[C@@H](CS(=O)(=O)O)NC(=O)CC[C@@H](C)[C@H]1CC[C@H]2[C@@H]3CC[C@@H]4C[C@H](O)CC[C@]4(C)[C@H]3CC[C@]12C` [NC10086], the inhibition at 1 µM in experiment [1] and in experiment [2] was under 20% each time. Also, the negative-log IC50 (pIC50) in experiment [3] was over 6.30; in experiment [4] it was at most 6.70.

Consider `CC(C)C[C@H](CS(=O)(=O)O)NC(=O)CC[C@@H](C)[C@H]1CC[C@H]2[C@@H]3CC[C@@H]4C[C@H](O)CC[C@]4(C)[C@H]3CC[C@]12C` [NC10087], for which the inhibition at 1 µM in experiment [1] and in experiment [2] was over 100% throughout. Also, the negative logarithm of the IC50 (pIC50) is 6.00 to 6.30 in experiment [3] and over 7.30 in experiment [4].

For `C[C@H](CCC(=O)NC1(CS(=O)(=O)O)CC1)[C@H]1CC[C@H]2[C@@H]3CC[C@@H]4C[C@H](O)CC[C@]4(C)[C@H]3CC[C@]12C` [NC10088], the inhibition at 1 µM in experiment [1] is 20 to 50%; in experiment [2], under 20%. Moreover, the negative logarithm of the IC50 (pIC50) was over 6.30 in experiment [3] and at most 6.70 in experiment [4].

In the case of `C[C@H](CCC(=O)N1CC[C@H](S(=O)(=O)O)C1)[C@H]1CC[C@H]2[C@@H]3CC[C@@H]4C[C@H](O)CC[C@]4(C)[C@H]3CC[C@]12C` [NC10089], the inhibition at 1 µM in experiment [1] was under 20%; in experiment [2] it was 20 to 50%. For the same molecule, the pIC50 in experiment [3] is over 6.30; in experiment [4], at most 6.70.

Turning to `C[C@H](CCC(=O)N1CC[C@@H](S(=O)(=O)O)C1)[C@H]1CC[C@H]2[C@@H]3CC[C@@H]4C[C@H](O)CC[C@]4(C)[C@H]3CC[C@]12C` [NC10090], the inhibition at 1 µM in experiment [1] and in experiment [2] was under 20% in each case. Also, the results for the pIC50 in experiment [3] and in experiment [4] were 6.00 to 6.30 and at most 6.70, respectively.

In the case of `C[C@H](CCC(=O)N(CCN(C)C)CCS(=O)(=O)O)[C@H]1CC[C@H]2[C@@H]3CC[C@@H]4C[C@H](O)CC[C@]4(C)[C@H]3CC[C@]12C` [NC10091], the inhibition at 1 µM in experiment [1] and in experiment [2] was over 100% each time. Moreover, the negative logarithm of the IC50 (pIC50) in experiment [3] is 6.00 to 6.30; in experiment [4], over 7.30.

`C[C@H](CCC(=O)NCCC(=O)O)[C@H]1CC[C@H]2[C@@H]3[C@H](O)C[C@@H]4C[C@H](O)CC[C@]4(C)[C@H]3C[C@H](O)[C@]12C` [NC20002]: the inhibition at 1 µM in experiment [1] and in experiment [2] was 50 to 100% each time. The figures for the pIC50 in experiment [3] and in experiment [4] were at most 5.70 and 6.70 to 7.00, respectively.

Take `C[C@H](CCC(=O)N(C)CCS(=O)(=O)O)[C@H]1CC[C@H]2[C@@H]3[C@H](O)C[C@@H]4C[C@H](O)CC[C@]4(C)[C@H]3C[C@H](O)[C@]12C` [NC20004]: the inhibition at 1 µM was under 20% in experiment [1] and over 100% in experiment [2]. Further, the values for the pIC50 in experiment [3] and in experiment [4] were 6.00 to 6.30 and over 7.30, respectively.

Turning to `C[C@H](CCC(=O)N(CCS(=O)(=O)O)Cc1ccccc1)[C@H]1CC[C@H]2[C@@H]3[C@H](O)C[C@@H]4C[C@H](O)CC[C@]4(C)[C@H]3C[C@H](O)[C@]12C` [NC20005], the inhibition at 1 µM in experiment [1] is under 20%; in experiment [2], over 100%. The pIC50 is 6.00 to 6.30 in experiment [3] and 7.00 to 7.30 in experiment [4].

As to `C[C@H](CCC(=O)N(CCO)CCS(=O)(=O)O)[C@H]1CC[C@H]2[C@@H]3[C@H](O)C[C@@H]4C[C@H](O)CC[C@]4(C)[C@H]3C[C@H](O)[C@]12C` [NC20006], the inhibition at 1 µM in experiment [1] is under 20%; in experiment [2], over 100%. In addition, the pIC50 was 5.70 to 6.00 in experiment [3] and over 7.30 in experiment [4].

As to `CC(C)N(CCS(=O)(=O)O)C(=O)CC[C@@H](C)[C@H]1CC[C@H]2[C@@H]3[C@H](O)C[C@@H]4C[C@H](O)CC[C@]4(C)[C@H]3C[C@H](O)[C@]12C` [NC20007], the results for the inhibition at 1 µM in experiment [1] and in experiment [2] were under 20% and over 100%, respectively. In addition, the results for the pIC50 in experiment [3] and in experiment [4] were 5.70 to 6.00 and over 7.30, respectively.

In the case of `C[C@H](CCC(=O)N(CCS(=O)(=O)O)C1CCOCC1)[C@H]1CC[C@H]2[C@@H]3[C@H](O)C[C@@H]4C[C@H](O)CC[C@]4(C)[C@H]3C[C@H](O)[C@]12C` [NC20008], the inhibition at 1 µM is under 20% in experiment [1] and over 100% in experiment [2]. For the same molecule, the pIC50 is 6.00 to 6.30 in experiment [3] and 7.00 to 7.30 in experiment [4].

For the molecule `C[C@H](CCC(=O)N1CCC[C@H](S(=O)(=O)O)C1)[C@H]1CC[C@H]2[C@@H]3[C@H](O)C[C@@H]4C[C@H](O)CC[C@]4(C)[C@H]3C[C@H](O)[C@]12C` [NC20009], the inhibition at 1 µM in experiment [1] and in experiment [2] was under 20% in each case. Also, the pIC50 in experiment [3] is at most 5.70; in experiment [4], over 7.30.

`C[C@H](CCC(=O)N1CCC[C@@H](S(=O)(=O)O)C1)[C@H]1CC[C@H]2[C@@H]3[C@H](O)C[C@@H]4C[C@H](O)CC[C@]4(C)[C@H]3C[C@H](O)[C@]12C` [NC20010]: the inhibition at 1 µM in experiment [1] is under 20%; in experiment [2], 50 to 100%. Moreover, the results for the pIC50 in experiment [3] and in experiment [4] were 5.70 to 6.00 and over 7.30, respectively.

As to `C[C@H](CCC(=O)N1CCC(S(=O)(=O)O)CC1)[C@H]1CC[C@H]2[C@@H]3[C@H](O)C[C@@H]4C[C@H](O)CC[C@]4(C)[C@H]3C[C@H](O)[C@]12C` [NC20011], the inhibition at 1 µM was under 20% in experiment [1] and 50 to 100% in experiment [2]. In addition, the pIC50 in experiment [3] was at most 5.70; in experiment [4], 7.00 to 7.30.

Turning to `C[C@H](CCC(=O)N1CC(S(=O)(=O)O)C1)[C@H]1CC[C@H]2[C@@H]3[C@H](O)C[C@@H]4C[C@H](O)CC[C@]4(C)[C@H]3C[C@H](O)[C@]12C` [NC20012], the inhibition at 1 µM was under 20% in experiment [1] and over 100% in experiment [2]. Also, the pIC50 was 6.00 to 6.30 in experiment [3] and over 7.30 in experiment [4].

Take `C[C@H](CCC(=O)NC(C)(C)CS(=O)(=O)O)[C@H]1CC[C@H]2[C@@H]3[C@H](O)C[C@@H]4C[C@H](O)CC[C@]4(C)[C@H]3C[C@H](O)[C@]12C` [NC20013]: the inhibition at 1 µM is under 20% in experiment [1] and over 100% in experiment [2]. The negative-log IC50 (pIC50) in experiment [3] is 5.70 to 6.00; in experiment [4], over 7.30.

In the case of `C[C@H](CCC(=O)N[C@@H](Cc1ccccc1)CS(=O)(=O)O)[C@H]1CC[C@H]2[C@@H]3[C@H](O)C[C@@H]4C[C@H](O)CC[C@]4(C)[C@H]3C[C@H](O)[C@]12C` [NC20014], the inhibition at 1 µM is under 20% in experiment [1] and over 100% in experiment [2]. The pIC50 in experiment [3] is 6.00 to 6.30; in experiment [4] it was over 7.30.

As to `C[C@H](CCC(=O)N[C@H](Cc1ccccc1)CS(=O)(=O)O)[C@H]1CC[C@H]2[C@@H]3[C@H](O)C[C@@H]4C[C@H](O)CC[C@]4(C)[C@H]3C[C@H](O)[C@]12C` [NC20015], the inhibition at 1 µM in experiment [1] was under 20%; in experiment [2], over 100%. Also, the pIC50 is over 6.30 in experiment [3] and over 7.30 in experiment [4].

Regarding `CC(C)[C@@H](CS(=O)(=O)O)NC(=O)CC[C@@H](C)[C@H]1CC[C@H]2[C@@H]3[C@H](O)C[C@@H]4C[C@H](O)CC[C@]4(C)[C@H]3C[C@H](O)[C@]12C` [NC20016], the inhibition at 1 µM was under 20% in experiment [1] and over 100% in experiment [2]. Also, the pIC50 in experiment [3] is 5.70 to 6.00; in experiment [4] it was over 7.30.

With `CC(C)[C@H](CS(=O)(=O)O)NC(=O)CC[C@@H](C)[C@H]1CC[C@H]2[C@@H]3[C@H](O)C[C@@H]4C[C@H](O)CC[C@]4(C)[C@H]3C[C@H](O)[C@]12C` [NC20017], the figures for the inhibition at 1 µM in experiment [1] and in experiment [2] were under 20% and 50 to 100%, respectively. In addition, the values for the negative logarithm of the IC50 (pIC50) in experiment [3] and in experiment [4] were over 6.30 and at most 6.70, respectively.

On to `C[C@H](CCC(=O)N[C@H](CS(=O)(=O)O)c1ccccc1)[C@H]1CC[C@H]2[C@@H]3[C@H](O)C[C@@H]4C[C@H](O)CC[C@]4(C)[C@H]3C[C@H](O)[C@]12C` [NC20018], for which the inhibition at 1 µM in experiment [1] and in experiment [2] was under 20% each time. Further, the pIC50 in experiment [3] was 5.70 to 6.00; in experiment [4] it was at most 6.70.

As to `C[C@H](CCC(=O)N[C@@H](CS(=O)(=O)O)c1ccccc1)[C@H]1CC[C@H]2[C@@H]3[C@H](O)C[C@@H]4C[C@H](O)CC[C@]4(C)[C@H]3C[C@H](O)[C@]12C` [NC20019], the inhibition at 1 µM in experiment [1] and in experiment [2] was under 20% throughout. Besides, the negative logarithm of the IC50 (pIC50) in experiment [3] is 5.70 to 6.00; in experiment [4], 7.00 to 7.30.
